Test results as given in US20250026721A1, “COMPOUNDS AND METHODS FOR MODULATING RAS-PI3K” (Vividion Therapeutics, Inc., priority 2023, published 2025).

Key:
[1] = tested on: pAKT(S473) in H358 cell line; experiment: In vitro Phospho-AKT(S473) HTRF analysis in H358 cells; assay type: cell-based; details: Homo sapiens, NCI-H358, 0.5 h; for IC50: H358 cells, 30 minutes at 37° C.; for Emax: read-out: H358 pAKT Imax % control
Method: Example 5. In Vitro Phosgho-AKT(S473) Analysis
Functional activity of the compounds to inhibit pAKT were assessed in FaDu or H358 cell lines as indicated below.
• Complete Media • FBS, Corning catalog #35-010-CV • Anti-Anti, Gibco catalog #15240-062 • 96 well plate, Corning catalog #3610 • TrypLE, Gibco catalog #12604013 • Phospho-AKT(S473) HTRF kit, Cisbio catalog #64AKSPET
Cells were detached from the tissue culture flask with TrypLE. The cells were pelleted at 500×g for 5 min, TrypLe was removed and then resuspended in the necessary volume of media+1% FBS to give the appropriate cell density (17,500 cells/mL for FaDu; 20,000 cells/mL for H358). 100 μL of cell suspension/well was dispensed into the 96-well plate while keeping the outer wells of the plate free of cells and filled with PBS to prevent evaporation of interior wells. The plate was incubated at 37° C. and allowed to adhere overnight. The cells were treated with a dose response of compound and incubated at 37° C. for 30 minutes. The cells were then processed and pAKT(S473) levels were assessed following the specifications of the Cisbio HTRF kit.

[2] = target: T1, PIK3CA (Homo sapiens, UniProt P42336); experiment: In vitro ELISA target engagement assay for PIK3CA in Jurkat cellular lysate (competition with PIK3CA Biotin Probe); assay type: binding; details: 1 hour at rt, then 500 nM PIK3CA Biotin Probe, read-out: Elisa Target Engagement Assay (TE50)
T1 construct: endogenous in cells; host or cells: Jurkat cell lysate
Procedure, shortened: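 Competition format in Jurkat lysate: compound (serial dilutions, top 200 μM) for 1 h at rt, then 500 nM final biotinylated PIK3CA probe for 1 h at rt. Sandwich ELISA with capture antibody and Neutravidin-HRP luminescence read-out measured probe-labelled PIK3CA, giving TE50.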

[3] = target: T2, PIK3CA_C242 (Homo sapiens, UniProt P42336); experiment: Proteomic TE50 (IA-DTB / TMT mass spectrometry) in Jurkat cell lysate; assay type: binding; details: 1 hour at rt, 7-point dose response
T2 construct: endogenous in cells; host or cells: Jurkat cell lysate
Procedure, shortened: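 Cysteine engagement was read by targeted TMT MS3 of the IA-DTB-labelled, streptavidin-enriched C242 tryptic peptide. Beforehand, Jurkat lysate was exposed to a 7-point 1:5 compound series for 1 h at rt, then to 200 μM IA-DTB for 1 h. Reporter S/N curves gave TE50.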

[4] = tested on: pAKT(S473) in FaDu cell line; experiment: In vitro Phospho-AKT(S473) HTRF analysis in FaDu cells; assay type: cell-based; details: Homo sapiens, 0.5 h; for IC50: FaDu cells, 30 minutes at 37° C.; for Emax: FaDu, read-out: FaDu pAKT Imax % control
Procedure, shortened: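 FaDu or H358 cells were plated overnight in medium with 1% FBS, then exposed to a compound dose response for 30 minutes at 37° C. Phospho-AKT(S473) levels were measured by HTRF.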

T2 sequence (P42336 whole entry): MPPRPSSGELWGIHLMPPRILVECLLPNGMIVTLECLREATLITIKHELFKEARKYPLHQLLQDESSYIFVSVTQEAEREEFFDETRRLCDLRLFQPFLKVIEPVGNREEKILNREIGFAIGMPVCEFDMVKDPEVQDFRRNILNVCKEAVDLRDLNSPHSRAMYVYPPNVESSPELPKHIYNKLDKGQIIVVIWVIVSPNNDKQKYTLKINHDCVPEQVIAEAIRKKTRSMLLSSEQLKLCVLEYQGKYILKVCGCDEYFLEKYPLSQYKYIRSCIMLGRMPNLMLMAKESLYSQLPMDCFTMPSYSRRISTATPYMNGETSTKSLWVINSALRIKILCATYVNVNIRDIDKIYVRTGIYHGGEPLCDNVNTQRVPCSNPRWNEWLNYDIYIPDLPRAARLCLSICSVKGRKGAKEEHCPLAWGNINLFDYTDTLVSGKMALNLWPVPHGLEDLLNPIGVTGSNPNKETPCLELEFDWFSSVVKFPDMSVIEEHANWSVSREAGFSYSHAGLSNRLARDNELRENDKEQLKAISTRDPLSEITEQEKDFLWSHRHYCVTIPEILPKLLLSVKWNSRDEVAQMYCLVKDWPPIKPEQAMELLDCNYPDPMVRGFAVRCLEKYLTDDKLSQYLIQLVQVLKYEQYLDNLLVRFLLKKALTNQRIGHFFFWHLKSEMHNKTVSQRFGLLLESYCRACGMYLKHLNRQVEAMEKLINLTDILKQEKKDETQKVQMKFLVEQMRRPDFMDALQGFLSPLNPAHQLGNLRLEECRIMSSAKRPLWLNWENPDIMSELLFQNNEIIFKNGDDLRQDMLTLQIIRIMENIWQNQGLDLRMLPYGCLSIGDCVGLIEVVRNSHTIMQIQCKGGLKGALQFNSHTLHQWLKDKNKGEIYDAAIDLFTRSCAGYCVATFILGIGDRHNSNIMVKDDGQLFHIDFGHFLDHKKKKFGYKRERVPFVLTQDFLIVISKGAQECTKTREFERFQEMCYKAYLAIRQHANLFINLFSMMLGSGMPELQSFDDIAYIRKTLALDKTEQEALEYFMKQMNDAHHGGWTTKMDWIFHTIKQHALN
T2 sequence (P27986 whole entry partner): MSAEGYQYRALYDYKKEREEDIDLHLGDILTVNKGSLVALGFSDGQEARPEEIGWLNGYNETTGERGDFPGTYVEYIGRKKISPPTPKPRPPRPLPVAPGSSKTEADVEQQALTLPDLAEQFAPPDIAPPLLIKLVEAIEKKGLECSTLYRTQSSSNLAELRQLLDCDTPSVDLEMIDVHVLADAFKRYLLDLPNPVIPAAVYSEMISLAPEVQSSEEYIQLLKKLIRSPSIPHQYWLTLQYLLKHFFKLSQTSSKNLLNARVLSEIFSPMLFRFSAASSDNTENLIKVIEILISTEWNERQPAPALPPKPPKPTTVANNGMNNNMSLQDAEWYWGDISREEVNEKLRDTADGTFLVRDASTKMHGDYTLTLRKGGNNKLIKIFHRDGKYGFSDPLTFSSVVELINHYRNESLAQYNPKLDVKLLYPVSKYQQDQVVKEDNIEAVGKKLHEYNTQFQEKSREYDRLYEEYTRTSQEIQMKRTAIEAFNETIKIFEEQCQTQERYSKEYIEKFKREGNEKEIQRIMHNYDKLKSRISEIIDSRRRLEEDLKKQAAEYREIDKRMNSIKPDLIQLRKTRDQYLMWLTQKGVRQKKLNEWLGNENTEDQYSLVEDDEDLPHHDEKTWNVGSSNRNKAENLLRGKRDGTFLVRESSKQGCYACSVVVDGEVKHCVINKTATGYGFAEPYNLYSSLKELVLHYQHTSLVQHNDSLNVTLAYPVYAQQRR
T1 sequence (P42336 whole entry): as the sequence (P42336 whole entry) above
T1 sequence (P27986 whole entry partner): as the sequence (P27986 whole entry partner) above

SMILES	IC50 [1] [nM]	IC50 [2] [nM]	IC50 [3] [nM]	IC50 [4] [nM]	Emax [1] [%]	Emax [4] [%]
C[C@H](/C=C/S(C)(=O)=O)NC(=O)[C@@]1(F)CCCN(C(=O)[C@H]2CN(CC(F)(F)F)C[C@H]2c2c(F)cccc2Cl)CC1 [Compound 296, (R)-1-((3R,4R)-4-(2-chloro-6-fluorophenyl)-1-(2,2,2-trifluoroethyl)pyrrolidine-3-carbonyl)-4-fluoro-N-((R,E)-4-(methylsulfonyl)but-3-en-2-yl)azepane-4-carboxamide]	642	400	–	–	69.4	–
COc1ccc(S(=O)(=O)N2CC[C@@](F)(C(=O)N[C@H](C)/C=C/C(=O)N3CC(F)(F)C3)C[C@H]2C)c(-c2ccccc2Cl)c1 [Compound 151, (2R,4S)-1-((2′-chloro-5-methoxy-[1,1′-biphenyl]-2-yl)sulfonyl)-N-((R,E)-5-(3,3-difluoroazetidin-1-yl)-5-oxopent-3-en-2-yl)-4-fluoro-2-methylpiperidine-4-carboxamide]	–	226	200	284	–	100
C[C@H](/C=C\S(C)(=O)=O)NC(=O)[C@@]1(F)CCCN(C(=O)[C@@H]2CN(CC(F)(F)F)C[C@@H]2c2c(F)cc(F)cc2Cl)CC1 (single isomer, unassigned) [Compound 227, (R)-1-((3*S,4*S)-4-(2-chloro-4,6-difluorophenyl)-1-(2,2,2-trifluoroethyl)pyrrolidine-3-carbonyl)-4-fluoro-N-((R,Z)-4-(methylsulfonyl)but-3-en-2-yl)azepane-4-carboxamide]	250	340	–	–	102	–
C[C@H](/C=C\S(C)(=O)=O)NC(=O)[C@@]1(F)CCCCN(C(=O)[C@H]2CN(CC(F)(F)F)C[C@H]2c2ccccc2Cl)CC1 (single isomer, unassigned) [Compound 272, (*R)-1-((3R,4R)-4-(2-chlorophenyl)-1-(2,2,2-trifluoroethyl)pyrrolidine-3-carbonyl)-4-fluoro-N-((R,Z)-4-(methylsulfonyl)but-3-en-2-yl)azocane-4-carboxamide]	694	880	–	–	89.8	–
C[C@H]1C[C@](F)(C(=O)N[C@@H]2C=CS(=O)(=O)C2)CCN1C(=O)[C@@H]1CN(CC(C)(F)F)C[C@@H]1c1cccc(F)c1Cl (single isomer, unassigned) [Compound 225, (2*S,4*S)-1-((3*S,4*S)-4-(2-chloro-3-fluorophenyl)-1-(2,2-difluoropropyl)pyrrolidine-3-carbonyl)-N-((R)-1,1-dioxido-2,3-dihydrothiophen-3-yl)-4-fluoro-2-methylpiperidine-4-carboxamide]	465	640	–	–	78.8	–
C[C@H](/C=C\S(C)(=O)=O)NC(=O)[C@@]1(F)CCCN(C(=O)[C@H]2CN(CC3(F)CC3)C[C@H]2c2ccccc2Cl)CC1 [Compound 185, (R)-1-((3R,4R)-4-(2-chlorophenyl)-1-((1-fluorocyclopropyl)methyl)pyrrolidine-3-carbonyl)-4-fluoro-N-((R,Z)-4-(methylsulfonyl)but-3-en-2-yl)azepane-4-carboxamide]	123	290	–	–	95.6	–
C[C@H](/C=C\S(C)(=O)=O)NC(=O)C1(F)CCN(C(=O)[C@H]2CN(CC(C)(F)F)C[C@H]2c2ccccc2Cl)CC1 [Compound 179, 1-((3R,4R)-4-(2-chlorophenyl)-1-(2,2-difluoropropyl)pyrrolidine-3-carbonyl)-4-fluoro-N-((R,Z)-4-(methylsulfonyl)but-3-en-2-yl)piperidine-4-carboxamide]	165	390	–	–	106	–
C[C@H](/C=C\S(C)(=O)=O)NC(=O)C1(F)CCN(C(=O)[C@H]2CN(CC(F)(F)F)C[C@H]2c2ccccc2Cl)C1 (stereo partly drawn) [Compound 314, 1-((3R,4R)-4-(2-chlorophenyl)-1-(2,2,2-trifluoroethyl)pyrrolidine-3-carbonyl)-3-fluoro-N-((R,Z)-4-(methylsulfonyl)but-3-en-2-yl)pyrrolidine-3-carboxamide]	622	1100	–	–	100	–
C[C@H]1C[C@](F)(C(=O)N[C@@H]2C=CS(=O)(=O)C2)CCN1C(=O)[C@H]1CN(CC(C)(F)F)C[C@H]1c1ccccc1Cl (single isomer, unassigned) [Compound 221, (2*S,4*S)-1-((3R,4R)-4-(2-chlorophenyl)-1-(2,2-difluoropropyl)pyrrolidine-3-carbonyl)-N-((R)-1,1-dioxido-2,3-dihydrothiophen-3-yl)-4-fluoro-2-methylpiperidine-4-carboxamide]	123	210	–	–	85	–
COc1cc(-c2ccccc2Cl)c(S(=O)(=O)N2CCC(F)(C(=O)N[C@@H](C)/C=C\S(C)(=O)=O)CC2)cn1 [Compound 187, (S,Z)-1-((4-(2-chlorophenyl)-6-methoxypyridin-3-yl)sulfonyl)-4-fluoro-N-(4-(methylsulfonyl)but-3-en-2-yl)piperidine-4-carboxamide]	–	–	68.1	152	–	70.1

Further lines, with some results ahead:

IC50 [1] [nM]	IC50 [2] [nM]	IC50 [3] [nM]	IC50 [4] [nM]	SMILES	Emax [1] [%]	Emax [4] [%]
–	177	150	348	C[C@H](/C=C/C(=O)N1CC(F)(F)C1)NC(=O)C1(F)CCN(S(=O)(=O)c2ccc(C(F)(F)F)cc2-c2ccccc2Cl)CC1 [Compound 134, 1-[2-(2-chlorophenyl)-4-(trifluoromethyl)phenyl]sulfonyl-4-fluoro-N—[(E,1R)-4-(3,3-difluoroazetidin-1-yl)-1-methyl-4-oxo-but-2-enyl]piperidine-4-carboxamide]	–	96.3
–	75	50	82.4	COc1ccc(S(=O)(=O)N2CC[C@@](F)(C(=O)N[C@H](C)/C=C\S(C)(=O)=O)C[C@H]2C)c(-c2ccccc2Cl)c1 [Compound 141, (2R,4S)-1-[2-(2-chlorophenyl)-4-methoxy-phenyl]sulfonyl-4-fluoro-2-methyl-N—[(Z,1R)-1-methyl-3-methylsulfonyl-allyl]piperidine-4-carboxamide]	–	102
–	158	133	409	C[C@H](/C=C\S(C)(=O)=O)NC(=O)C1(F)CCN(S(=O)(=O)c2ccc(C(F)(F)F)cc2-c2ccccc2Cl)CC1 [Compound 33, (R,Z)-1-((2′-chloro-5-(trifluoromethyl)-[1,1′-biphenyl]-2-yl)sulfonyl)-4-fluoro-N-(4-(methylsulfonyl)but-3-en-2-yl)piperidine-4-carboxamide]	–	86.2
–	184	150	803	C[C@H](/C=C\S(C)(=O)=O)NC(=O)C1(F)CCN(S(=O)(=O)c2cnc(C(F)(F)F)cc2-c2ccccc2Cl)CC1 [Compound 207, (R,Z)-1-((4-(2-chlorophenyl)-6-(trifluoromethyl)pyridin-3-yl)sulfonyl)-4-fluoro-N-(4-(methylsulfonyl)but-3-en-2-yl)piperidine-4-carboxamide]	–	75.2
–	165	140	330	C[C@H](/C=C\S(C)(=O)=O)NC(=O)C1(F)CCN(S(=O)(=O)c2ccc(C#N)cc2-c2ccccc2Cl)CC1 [Compound 35, (R,Z)-1-((2′-chloro-5-cyano-[1,1′-biphenyl]-2-yl)sulfonyl)-4-fluoro-N-(4-(methylsulfonyl)but-3-en-2-yl)piperidine-4-carboxamide]	–	103
–	72	–	138	C[C@H](/C=C\S(C)(=O)=O)NC(=O)[C@@]1(F)CCCN(C(=O)c2ccc(C(F)(F)F)cc2-c2ccccc2Cl)CC1 [Compound 242, (R)-1-(2′-chloro-5-(trifluoromethyl)-[1,1′-biphenyl]-2-carbonyl)-4-fluoro-N-((R,Z)-4-(methylsulfonyl)but-3-en-2-yl)azepane-4-carboxamide]	–	–
–	42	–	163	COC[C@@H](/C=C\S(C)(=O)=O)NC(=O)C1(F)CCN(S(=O)(=O)c2ccc(Br)cc2-c2ccccc2Cl)CC1 [Compound 246, (R,Z)-1-((5-bromo-2′-chloro-[1,1′-biphenyl]-2-yl)sulfonyl)-4-fluoro-N-(1-methoxy-4-(methylsulfonyl)but-3-en-2-yl)piperidine-4-carboxamide]	–	–
